According to patent US7989478B2, “Cinnamoyl compound and use of the same” (Sumitomo Chemical Company, Limited, priority 2003, dated 2011):

These compounds were tested on ability of TGF-β to promote transcription of a Type I collagen gene (assay: Inhibition of the ability of TGF-β to promote transcription of a Type I collagen gene (COL-Luc reporter gene assay)). Conditions: final concentration 1 μM; TGF-β added; normal human fetal skin fibroblast transfected with COL-Luc; 40 hours; read-out: Inhibition percentage.
Assay type: cell-based
Method: 1×10^8 cells of a normal human fetal skin fibroblast (Clontech, catalogue No. CC-2509) were cultured at 37° C. overnight under 5% CO2 atmosphere. After the cultured cells were washed with a sodium phosphate buffer (hereinafter, referred to as PBS) twice, 3 ml of PBS was added thereto and the cells were scraped away the wall of a vessel using a cell scraper (Nalgen, catalogue No. 179693). The scraped cells were collected by centrifugation (1,500 rpm, 4° C., 15 min), and these were suspended in 20 ml of PBS and centrifuged again. To the resulting precipitates were added 11 ml of Solution 2 and 4.8 μl of pronase of DNA Extraction Kit (Stratagene, catalogue No. 200600). After shaken at 60° C. for 1 hour, the resulting mixture was allowed to stand in ice for 10 minutes. Then, 4 ml of Solution 3 of the kit was added to the mixture. After mixed, the mixture was allowed to stand in ice for 5 minutes and then centrifuged (3,000 rpm, 4° C., 15 min) to recover a supernatant. To the recovered supernatant was added 2 μl of RNase per 1 ml of the supernatant and the mixture was allowed to stand at 37° C. for 15 minutes. To the mixture was added 2-fold volume of ethanol. After mixed, a white thread-like substance (genomic DNA) appeared and the substance was recovered. The recovered genomic DNA was washed with 70% ethanol and then air-dried. The air-dried genomic DNA was dissolved in 500 μl of 10 mM Tris-HCl, 1 mM EDTA (pH 8.0) (hereinafter, referred to as TE).
The resulting genomic DNA solution (the amount equivalent to 1 μg of genomic DNA), each 1 μl (10 pmol/μl) of an oligonucleotide consisting of the nucleotide sequence represented by SEQ ID No:1 and an oligonucleotide consisting of the nucleotide sequence represented by SEQ ID No:2, 29 μL of distilled water, 5 μl of the buffer attached to TaKaRa LA Taq (TAKARA SHUZO, catalogue No. RR002A), 5 μL of a Mg^2+ solution, 5 μL of a dNTP mixture and 0.5 μl of TaKaRa LA Taq (TAKARA SHUZO, catalogue No. RR002A) were mixed. After the resulting mixed solution was incubated at 94° C. for 5 minutes, the mixed solution was subjected to 30 cycles, in which one cycle consists of incubation at 94° C. for 1 minute, at 60° C. for 1 minute and then at 72° C. for 1 minute. The mixed solution was electrophoresed on a 2% agarose gel to recover about 0.5 kb of a DNA. The recovered DNA was treated with phenol/chloroform and then precipitated with ethanol to recover the DNA. The resulting DNA was dissolved in ultrapure water. To this solution were added 2.5 μl of NheI and 2.5 μl of HindIII, and then incubated at 37° C. for 3 hours. Then, the solution was electrophoresed on a 2% agarose gel to recover about 3.5 kb of a DNA. The recovered DNA was precipitated with ethanol to recover again the DNA (hereinafter, referred to as the collagen promoter DNA).
On the other hand, the vector pGL3 (Promega, catalogue No. E1751) having the nucleotide sequence encoding firefly luciferase was digested with NheI and HindIII, and then subjected to agarose gel electrophoresis as described above to recover about 5 kb of a DNA. The recovered DNA was precipitated with ethanol to recover the DNA again. To the recovered DNA were added 44 μl of distilled water, 5 μl of Buffer attached to Alkaline Phosphatase (TAKARA SHUZO, catalogue No. 2120A) and 1 μl of Alkaline Phosphatase (TAKARA SHUZO, catalogue No. 2120A). The mixed solution was incubated at 65° C. for 30 minutes. Then, the mixed solution was treated with phenol/chloroform twice, and precipitated with ethanol to recover the DNA (hereinafter referred to as the Luc vector DNA). Then, after about 20 ng of the collagen promoter DNA and about 20 ng of the Luc vector DNA were mixed, the same amount of a DNA Ligation kit Ver2 enzyme solution was added and this was incubated overnight at 16° C. To the mixed solution was added Escherichia coli 5Hdα (TOYOBO, catalogue No. DNA-903), this was allowed to stand in ice for 30 minutes, and then incubated at 42° C. for 45 seconds. […]

| SMILES | inhibition at 1 µM [%] |
| --- | --- |
| COC(=O)COc1cccc(C=CC(=O)c2c(O)cc(C)[nH]c2=O)c1 [Compound No. (7a), 4-hydroxy-3-[3-[3-[(methoxycarbonyl)methoxy]phenyl]-1-oxo-2-propenyl]-6-methyl-2(1H)-pyridinone] | ≥ 70 |
| Cc1cc(O)c(C(=O)C=Cc2cccc(OCC#N)c2)c(=O)n1C [Compound No. (11a), 4-hydroxy-3-[3-[3-(cyanomethoxy)phenyl]-1-oxo-2-propenyl]-1,6-dimethyl-2(1H)-pyridinone] | ≥ 70 |
| Cn1c(=O)c(C(=O)C=Cc2cccc(OCC#N)c2)c(O)c2ccccc21 [Compound No. (11e), 1-methyl-4-hydroxy-3-[3-[3-(cyanomethoxy)phenyl]-1-oxo-2-propenyl]-2(1H)-quinolinone] | ≥ 70 |
| Cc1cc(O)c(C(=O)C=Cc2ccc(OCC#N)cc2)c(=O)[nH]1 [Compound No. (13a), 4-hydroxy-3-[3-[4-(cyanomethoxy)phenyl]-1-oxo-2-propenyl]-6-methyl-2(1H)-pyridinone] | ≥ 70 |
| N#CCOc1ccc(C=CC(=O)c2c(O)c3ccccc3[nH]c2=O)cc1 [Compound No. (13e), 4-hydroxy-3-[3-[4-(cyanomethoxy)phenyl]-1-oxo-2-propenyl]-2(1H)-quinolinone] | ≥ 70 |
| COCC(=O)Nc1cccc(C=CC(=O)c2c(O)cc(C)[nH]c2=O)c1 [Compound No. (18a), 4-hydroxy-3-[3-[3-(methoxyacetylamino)phenyl]-1-oxo-2-propenyl]-6-methyl-2(1H)-pyridinone] | ≥ 70 |
| COCC(=O)Nc1ccc(C=CC(=O)c2c(O)cc(C)[nH]c2=O)cc1 [Compound No. (20a), 4-hydroxy-3-[3-[4-(methoxyacetylamino)phenyl]-1-oxo-2-propenyl]-6-methyl-2(1H)-pyridinone] | ≥ 70 |
| COCCOC(=O)Nc1cccc(C=CC(=O)c2c(O)c3ccccc3[nH]c2=O)c1 [Compound No. (21e), 4-hydroxy-3-[3-[3-[(2-methoxyethoxy)carbonylamino]phenyl]-1-oxo-2-propenyl]-2(1H)-quinolinone] | ≥ 70 |
| COCCNC(=O)Nc1cccc(C=CC(=O)c2c(O)cc(C)[nH]c2=O)c1 [Compound No. (22a), 4-hydroxy-3-[3-[3-[(2-methoxyethyl)aminocarbonylamino]phenyl]-1-oxo-2-propenyl]-6-methyl-2(1H)-pyridinone] | ≥ 70 |
| CS(=O)(=O)NC(=O)c1cccc(C=CC(=O)c2c(O)c3ccccc3[nH]c2=O)c1 [Compound No. (26e), 4-hydroxy-3-[3-[3-[(methanesulfonyl)aminocarbonyl]phenyl]-1-oxo-2-propenyl]-2(1H)-quinolinone] | ≥ 70 |
| COC(=O)CNC(=O)c1cccc(C=CC(=O)c2c(O)c3ccccc3[nH]c2=O)c1 [Compound No. (28e), 4-hydroxy-3-[3-[3-[[(methoxycarbonylmethyl)amino]carbonyl]phenyl]-1-oxo-2-propenyl]-2(1H)-quinolinone] | ≥ 70 |
| N#CCNC(=O)c1cccc(C=CC(=O)c2c(O)c3ccccc3[nH]c2=O)c1 [Compound No. (33e), 4-hydroxy-3-[3-[3-[[(cyanomethyl)amino]carbonyl]phenyl]-1-oxo-2-propenyl]-2(1H)-quinolinone] | ≥ 70 |
| Cc1cc(O)c(C(=O)C=Cc2cccc(C(=O)NCC#N)c2)c(=O)[nH]1 [Compound No. (35a), 4-hydroxy-3-[3-[3-[(cyanomethyl)aminocarbonyl]phenyl]-1-oxo-2-propenyl]-6-methyl-2(1H)-pyridinone] | ≥ 70 |

What follows are compounds tested on mRNA of Type I collagen gene in renal glomerulus (assay: mRNA of Type I collagen gene in renal glomerulus of anti-Thy-1 antibody-administered rats (improvement of chronic renal failure)). Conditions: Example 5; anti-Thy-1 antibody rats; 15 mg/kg/day orally for 7 days in corn oil.
Assay type: in vivo, rat
Method: IgG was purified from an ascites-lyophilized powder (CEDARLANE, lot No. 05122) containing an anti-rat CD90 (Thy1.1) monoclonal antibody using MAbTrap kit (Amersham Biosciences, catalogue No. 17-1128-01).
6 ml of a binding buffer was added to 3 ml of ascites to sufficiently recover it, and this was passed through a 0.22 μm filter. The resulting solution was applied to a pre-bufferized column, and the column was then washed with 10 ml of a binding buffer. Thereafter, the column was eluted with 5 ml of an elution buffer. From washing, each 1 ml was fractionated, and the protein concentration of each fraction was measured using bovine serum albumin as a standard. A single peak was confirmed from an elution pattern, and an IgG fraction was dialyzed against a physiological saline overnight at 4° C. The protein concentration of the resulting anti-Thy-1 antibody (IgG) was calculated.
The present compounds represented by the compound numbers (28a) (hereinafter, referred to as the present compound (28a)), the present compound represented by a compound number (30a) (hereinafter, referred to as the present compound (30a)), the present compound represented by a compound number (33a) (hereinafter, referred to as the present compound (33a)), the present compound represented by a compound number (10e) (hereinafter, referred to as the present compound (10e)), the present compound represented by a compound number (18e) (hereinafter referred to as the present compound (18e)), the present compound represented by a compound number (31e) (hereinafter, referred to as the present compound (31e)) and a corn oil which is a medium were weighed. These were mixed using a mortar and a pestle to prepare a […]. Using four 7-week old male Wistar rats [Nippon Charles River] per group, 60 μg/ml of the anti-Thy-1 antibody (IgG) or a physiological saline was intravenously injected via a tail vein at 5 ml/kg. […] A dose of the present compound was 15 mg/kg/day.
On the next day of final administration, a rat reared as described in the above (2) was slaughtered by collection of whole blood, and kidneys were isolated. A whole RNA was separated from the cortex of the isolated kidney using RNeasy Mini Kit (QIAGEN, catalogue No. 74106). To 5 μl (50 ng) of the separated whole RNA were added 1 μl of 20 μM oligo dT and 4 μl of RNase-free distilled water. After the mixture was incubated at 65° C. for 5 minutes, it was immediately ice-cooled. To 10 μl of the solution were added 4 μl of 5× buffer, 2.4 μl of MgCl2, 1 μl of 10 mM dNTP, 1 μl of RNasin, 1 μl of Improm II and 0.6 μl of RNase-free distilled water (all available from Promega), and a reverse transcription reaction was performed under the condition of at 25° C. for 5 minutes, at 42° C. for 1 hour, and at 70° C. for 15 minutes.
Into 5 μl of the reverse transcription reaction solution were mixed each 2 μl of each 1.25 pmol/μl of primers represented by SEQ ID NOS: 3 and 4, 1.25 μl of a probe (FAM-ctcgccttca tgcgcctgct agc-TAMRA) for detecting DNA of a Type I collagen gene represented by SEQ ID No:5, each 0.25 μl of Rodent GAPDH primers, 0.25 μl of a Rodent GAPDH probe, 12.5 μl of TaqMan Universal PCR Master Mix (all available from Applied Biosystem) and 1.5 μl of sterilized water in a well of Optical 96-Well Reaction Plate (Applied Biosystem, catalogue No. N801-0560). As a standard, in place of 5 μl of the reverse transcription reaction solution, each 5 μl of 500, 250, 125, 62.5, 31.25, 15.625 ng/μl rat renal cortex cDNA which had been prepared in advance was used. Thereafter, using Gene Amp 7900 (Applied Biosystem), PCR was performed under the condition of at 50° C. for 5 minutes, and 40 cycles in which one cycle is at 95° C. for 15 seconds and at 60° C. for 1 minute. […]

| SMILES | ability to improve chronic renal failure |
| --- | --- |
| COC(=O)CNC(=O)c1ccc(C=CC(=O)c2c(O)cc(C)[nH]c2=O)cc1 [Compound No. (30a), 4-hydroxy-3-[3-[4-[[(methoxycarbonylmethyl)amino]carbonyl]phenyl]-1-oxo-2-propenyl]-6-methyl-2(1H)-pyridinone] | have the ability to improve chronic renal failure |
| COCCNC(=O)c1ccc(C=CC(=O)c2c(O)cc(C)[nH]c2=O)cc1 [Compound No. (33a), 4-hydroxy-3-[3-[4-[(2-methoxyethyl)aminocarbonyl]phenyl]-1-oxo-2-propenyl]-6-methyl-2(1H)-pyridinone] | have the ability to improve chronic renal failure |

Same assay, conditions: Table 3; Type I collagen amount/GAPDH amount, renal cortex; anti-Thy-1 antibody +; 15 mg/kg/day orally for 7 days in corn oil; Wistar rats; control group 3.4, normal group 1.9; test results p < 0.05

| SMILES | mRNA of collagen gene |
| --- | --- |
| COC(=O)CNC(=O)c1ccc(C=CC(=O)c2c(O)cc(C)[nH]c2=O)cc1 [Compound No. (30a), 4-hydroxy-3-[3-[4-[[(methoxycarbonylmethyl)amino]carbonyl]phenyl]-1-oxo-2-propenyl]-6-methyl-2(1H)-pyridinone] | 2.4 |
| COCCNC(=O)c1ccc(C=CC(=O)c2c(O)cc(C)[nH]c2=O)cc1 [Compound No. (33a), 4-hydroxy-3-[3-[4-[(2-methoxyethyl)aminocarbonyl]phenyl]-1-oxo-2-propenyl]-6-methyl-2(1H)-pyridinone] | 2.4 |
